{"source": "patent US5639787A", "about": "“Therapeutic method for the treatment of cancer” (priority 1995, dated 1997)", "key": {"[1]": {"test_system": "intracellular adhesion molecule-1 (ICAM-1)", "conditions": "cited from earlier work"}, "clinical [2]": {"assay": "clinical", "conditions": "human, in vivo", "excerpt": "It is known that ascorbic acid and salts thereof have shown a cytotoxic effect when administered in vitro to tumor cell lines. […] The cytotoxic effect of ascorbic acid is understood to relate to the increased production of intracellular hydrogen peroxide, which is more toxic to tumor cells due to the lower levels of catalase typically present in tumor cells as compared to normal cells. Although some cancers may respond to lower levels, the concentration level of ascorbic acid required for in vitro cytotoxic effectiveness are normally in the range of 5-40 mg/dl with concentrations of 30-40 mg/dl being typical. […] Moreover, since ascorbic acid is readily cleared from the body, the tumor cytotoxic effect, if any, achieved by conventionally administered doses of ascorbic acid would be transitory at best.\nThe method of the present invention comprises the treatment of cancer by administering sufficient amounts of ascorbic acid to raise the concentration of ascorbic acid in the patient's plasma above a level that is cytotoxic to the cancer tumor cells. The treatment is based on the fact that tumor cells contain between 10 and 100 fold less of the enzyme catalase than normal cells. Catalase converts toxic hydrogen peroxide to non-toxic oxygen and water. This biochemical difference between normal and tumor cells provides a window of opportunity for selective toxicity. It has been known for some time that ascorbate is capable of inducing the intracellular production of hydrogen peroxide. The basis of the present invention is the discovery, through experimentation, that concentrations of ascorbate capable of inducing toxic reactions in tumor cells were achievable in vivo through intravenous infusion of large amounts of ascorbic acid in solution. […] For this reason, it is desirable to exceed the levels required for in vitro cytotoxicity in tumor cells by a wide margin. It is also advantageous to maintain the cytotoxic level of ascorbic acid in the patient's plasma for as long a period of time as is reasonably possible. To achieve such results in patients, the treatment has required intravenous administration of as much as 115 grams of ascorbic acid infused over several hours to achieve an apparently effective level of ascorbic acid. […] Continuous administration of a solution of ascorbic acid maintains the plasma levels despite the bodies ability to clear the ascorbate from the patient's system. Continuation of the treatment over multiple infusions is believed to be desirable. […] The plasma levels of ascorbic acid in patients are routinely and repeatedly monitored throughout the treatment and the amount of ascorbic acid administered is adjusted according to the individual patient's tolerance and the target level of ascorbic acid. Target levels of ascorbic acid are set according to the type of cancer afflicting the patient using in vitro studies of cytotoxicity in similar cell lines. More accurate target levels can be achieved by in vitro experimentation of malignant cells taken from the patient if such are available. A further development of the treatment of the present invention involves the direct testing of the cytotoxic effectiveness of the patient's serum. Serum is drawn during the infusion and either the patient malignant cells, if available, or similar cell lines are exposed to the patient's serum with the effects observed. This direct testing provides information that is used to adjust the amount of ascorbic acid administered to ensure that effective plasma levels have been achieved.\nSince, as stated above, there is not a direct translation of in vitro to in vivo results, the level of ascorbic acid within the patient's plasma must be raised to exceed the levels required for in vitro cytotoxicity in tumor cells and maintained at that level for a significant period of time. The patient undergoes an intravenous infusion of ascorbic acid in a medically acceptable aqueous solution such as Ringer's lactate. As an example, Mr. […]"}, "[3]": {"assay": "safety and tolerance of ascorbic acid administration", "format": "in vivo, human", "excerpt": "G.; O'Fallon, J. R.; et al. Failure of High Dose Vitamin C (ascorbic acid) to Benefit Patients With Advanced Cancer: A Control Trial. N Engl. J. Med., 1979; 301:687-690 and Mortel, C. G.; Fleming, T. R.; Creagan, E. T.; , et al. High Dose of Vitamin C Versus Placebo In The Treatment of Patients With Advanced Cancer Who Have Had No Prior Chemotherapy. N Engl. J. Med., 1985; 312:137-141. Heretofore the highest dosage understood to be safely administered to a human was approximately 10-15 grams. […] The positive results are believed to have been achieved by means of increased stromal resistance to the invasiveness of the malignancies studied, although the lack of monitoring of the level of ascorbic acid present in the plasma prevents an accurate assessment.\nTherefore, the in vitro results are not readily duplicated in vivo and the concentrations of ascorbic acid that are effectively toxic in vitro are not as effective, nor as easy to achieve, in test subjects.\nThe method of the present invention comprises the treatment of cancer by administering sufficient amounts of ascorbic acid to raise the concentration of ascorbic acid in the patient's plasma above a level that is cytotoxic to the cancer tumor cells. The treatment is based on the fact that tumor cells contain between 10 and 100 fold less of the enzyme catalase than normal cells. Catalase converts toxic hydrogen peroxide to non-toxic oxygen and water. This biochemical difference between normal and tumor cells provides a window of opportunity for selective toxicity. It has been known for some time that ascorbate is capable of inducing the intracellular production of hydrogen peroxide. […] The plasma levels of ascorbic acid in patients are routinely and repeatedly monitored throughout the treatment and the amount of ascorbic acid administered is adjusted according to the individual patient's tolerance and the target level of ascorbic acid. […]"}, "[4]": {"test_system": "metastatic carcinoma of the head of the pancreas", "assay": "A person, intravenous ascorbate, tumor on C-T scan", "format": "in vivo, human", "conditions": "six months after diagnosis", "method": "Since, as stated above, there is not a direct translation of in vitro to in vivo results, the level of ascorbic acid within the patient's plasma must be raised to exceed the levels required for in vitro cytotoxicity in tumor cells and maintained at that level for a significant period of time. The patient undergoes an intravenous infusion of ascorbic acid in a medically acceptable aqueous solution such as Ringer's lactate. As an example, whose case is described below was administered 115 grams of ascorbic acid in 1000 cc Ringer's lactate, infused over 8 hours. The infusions are continued until resolution of the patient's tumors have been evidenced. Normal diagnosis and classification of the patient's cancer can be used in conjunction with experimental results to predict the target levels of ascorbic acid for an effective treatment. More accurate target levels can be achieved by experimentation on cultured malignant cells taken from the patient if such are available. […] The plasma levels of ascorbic acid in patients are routinely and repeatedly monitored throughout the treatment and the amount of ascorbic acid administered is adjusted according to the individuals tolerance and the target level of ascorbic acid. […]"}, "[5]": {"test_system": "metastatic fibrous histiocytoma", "assay": "A person, intravenous ascorbate, chest x-ray", "format": "in vivo, human", "quoted_text": "Two masses were in the left lung and one mass was in the right lung. All masses measured approximately 2 cm. in diameter."}, "[6]": {"test_system": "patient's tumor cells (metastatic colon carcinoma)", "assay": "cells", "format": "cell-based", "conditions": "Homo sapiens, Colon carcinoma cell, read-out: toxic to percent of the patient's tumor cells", "method": "(§1) 3 Mr. […] Cancer was discovered during exploratory surgery. Multiple metastases were found on the omentum, transverse and sigmoid colon, and the peritoneum. Biopsy samples from these metastases were obtained during surgery and most of the tumor mass was not removed. A cell culture line was established from the tissue biopsies, and the patient tumor cells were tested to determine the sensitivity of the tumor cells to ascorbic acid. […] A target level of plasma concentration of ascorbic acid was selected at three times the level found to be toxic to the patient's tumor cells. Intravenous ascorbate was begun and the infusion quantity and rate required to achieve and maintain the targeted plasma ascorbic acid concentration of 90 mg/dl was determined. Twenty hour infusions of ascorbate were given three times per week. After four months of therapy, a surgical ileostomy was performed due to chronic diarrhea."}, "[7]": {"test_system": "metastatic colon carcinoma", "assay": "A person, intravenous ascorbate, metastases observed during surgery", "format": "in vivo, human", "conditions": "after four months of therapy", "method": "as §1"}, "[8]": {"test_system": "metastatic ovarian cancer", "assay": "A person, intravenous ascorbate, cancer antigen CA-125 level", "format": "in vivo, human", "conditions": "throughout intravenous ascorbate therapy, seven months", "method": "4 a person is a person with metastatic ovarian cancer. After six months of standard chemotherapy, a second exploratory surgery was performed, at which time metastases throughout the abdominal cavity were found. The patient was started on intravenous ascorbate infusions at the quantity and rate of flow required to maintain a plasma concentration of 80 mg/dl."}, "clinical [9]": {"assay": "clinical", "conditions": "human, in vivo, iv", "method": "(§2) 5 a person was a with metastatic prostate cancer. A baseline blood sample was drawn from the patient and the serum was separated. An intravenous infusion of 105 grams of ascorbate was performed over 5 hours. At the and of the 5 hours another blood sample was taken and again the serum was separated. The pre-infusion serum sample was assayed and found to contain an ascorbic acid concentration of 3.4 mg/dl and the post-infusion serum samples were assayed and found to contain an ascorbic acid concentration of 165 mg/dl. The cytotoxic effectiveness of both serum samples was tested against a line of human prostate tumor cells called \"PC-3\"from American Type Culture Collection. The PC-3 cells were plated, 3,000 cells per well in plastic 96 well tissue culture plates 24 hours before the blood was taken from the patient above. 100% and 50% (diluted with complete culture medium, DMEM) serum solutions from both samples were added to 16 wells each of the PC-3 cells which had been plated earlier. After a five day incubation, the number of surviving tumor cells in the wells containing the 100% and 50% solutions of the post-infusion serum sample was compared to the number of surviving tumor cells in the wells containing the 100% and 50% solutions of the pre-infusion serum sample and the percent survival was calculated as follows: […]"}, "[10]": {"test_system": "PC-3 human prostate tumor cells", "assay": "cells", "format": "cell-based", "conditions": "PC-3, 120 h", "method": "as §2"}, "[11]": {"conditions": "humans; cited from earlier work"}, "cancer": {"test_system": "cancer", "conditions": "high doses of ascorbic acid; two published trials; cited from earlier work"}, "tumor cell lines": {"test_system": "tumor cell lines", "conditions": "cited from earlier work"}, "[12]": {"conditions": "cited from earlier work"}}, "note": "Where two headings read alike, the source gives them in different places.", "data": [{"compound": "hyaluronic acid", "values": [{"measurement": "binding by ICAM-1", "setting": "[1]", "value": "preferentially bound"}]}, {"compound": "O=C1O[C@H]([C@@H](O)CO)C(O)=C1O", "note": "[ascorbic acid]", "values": [{"measurement": "concentration at 1 h", "setting": "clinical [2]; iv", "value": 1580, "unit": "µg/mL"}, {"measurement": "concentration at 5 h", "setting": "clinical [2]; iv", "value": 1850, "unit": "µg/mL"}, {"measurement": "plasma concentration maintained", "setting": "clinical [2]; iv", "value": 80, "unit": "mg/dL"}, {"measurement": "plasma level of ascorbate achieved", "setting": "clinical [2]; iv", "value": "exceeding 150 mg/dl"}, {"measurement": "plasma levels of ascorbate achieved", "setting": "clinical [2]; iv", "value": 110, "unit": "mg/dL"}, {"measurement": "targeted plasma ascorbic acid concentration achieved and maintained", "setting": "clinical [2]; iv", "value": 90, "unit": "mg/dL"}, {"measurement": "levels of ascorbic acid between infusions", "setting": "clinical [2]; po", "value": "found to avoid abnormally low levels of ascorbic acid between infusions"}, {"measurement": "detrimental side effects", "setting": "[3]; A person, 39 8 hour infusions, 57.5 to 115 grams per infusion, 13 weeks", "value": "without reported detrimental side effects"}, {"measurement": "depletion of minerals and other substances", "setting": "[3]; ascorbic acid infusion process", "value": "depletion of certain minerals and other substances"}, {"measurement": "detrimental side effects", "setting": "[3]; intravenous infusion of large amounts (as much as 115 grams over several hours)", "value": "without reported detrimental side effects"}, {"measurement": "tumor seen on C-T scan", "setting": "[4]", "value": "no detectable tumor"}, {"measurement": "right lung mass, chest x-ray", "setting": "[5]; after seven months of therapy", "value": "disappeared"}, {"measurement": "diameter of regressed left lung mass", "setting": "[5]; after seven months, initially approximately 2 cm in diameter", "value": "about 1 cm"}, {"measurement": "left lung mass which had regressed", "setting": "[5]; after twelve months of therapy", "value": "completely resolved"}, {"measurement": "size of the remaining left lung metastasis", "setting": "[5]; after twelve months of therapy", "value": "no change"}, {"measurement": "left lung mass, chest x-ray", "setting": "[5]; one of the left lung masses, after seven months of therapy", "value": "decreased in size (to about 1 cm) with decreased radio-opacity"}, {"measurement": "cytotoxicity at 300 µg/mL", "setting": "[6]", "value": 100, "unit": "%"}, {"measurement": "multiple metastases, size and consistency", "setting": "[7]", "value": "decreased significantly in size and have a flaccid consistency"}, {"measurement": "level of cancer antigen CA-125", "setting": "[8]", "value": "returned to normal and remained within normal limits"}, {"measurement": "ascorbic acid concentration in serum", "setting": "clinical [9]", "value": 3.4, "unit": "mg/dL"}, {"measurement": "concentration at 5 h", "setting": "clinical [9]", "value": 1650, "unit": "µg/mL"}, {"measurement": "viability at 1650 µg/mL", "setting": "[10]; read-out: percent tumor cell survival, post-infusion serum (165 mg/dl ascorbic acid), 50% serum, five days", "value": 15, "unit": "%"}, {"measurement": "viability at 1650 µg/mL", "setting": "[10]; read-out: percent tumor cell survival, post-infusion serum (165 mg/dl ascorbic acid), 100% serum, five days", "value": 19, "unit": "%"}, {"measurement": "viability at 34 µg/mL", "setting": "[10]; read-out: percent tumor cell survival, preinfusion serum (3.4 mg/dl ascorbic acid), 50% serum, five days, reference", "value": 100, "unit": "%"}, {"measurement": "viability at 34 µg/mL", "setting": "[10]; read-out: percent tumor cell survival, preinfusion serum (3.4 mg/dl ascorbic acid), 100% serum, five days, reference", "value": 100, "unit": "%"}, {"measurement": "normal plasma levels of ascorbic acid", "setting": "[11]", "value": "0.39 to 1.13", "unit": "mg/dL"}, {"measurement": "benefit to patients with advanced cancer", "setting": "cancer", "value": "failure of high doses of ascorbic acid to have the desired effect in the treatment of cancer"}, {"measurement": "effect of exposure to plasma on cytotoxic effect", "setting": "tumor cell lines; exposure to plasma", "value": "diminished, to varying degrees"}, {"measurement": "concentration level of ascorbic acid required for in vitro cytotoxic effectiveness", "setting": "tumor cell lines; normally in the range", "value": "5 to 40", "unit": "mg/dL"}, {"measurement": "concentration level of ascorbic acid required for in vitro cytotoxic effectiveness, typical", "setting": "tumor cell lines; typical concentrations", "value": "30 to 40", "unit": "mg/dL"}, {"measurement": "highest dosage understood to be safely administered to a human", "setting": "[12]; human, before the invention", "value": "10-15 grams"}, {"measurement": "tumor necrosis and hemorrhage", "setting": "[12]; rare cases of extreme tumor sensitivity to ascorbic acid, fatal", "value": "rare instances of wide-spread tumor necrosis and hemorrhage"}]}]}
